Results reported in US20250382273A1 (INSTITUT NATIONAL DE LA SANTE ET DE LA RECHERCHE MEDICALE, priority 2022, published 2025).

Each compound was assayed on M. tuberculosis H37Rv_DdnL49P_gfp. Conditions: in combination with pretomanid, unit inferred; read-out: average EC50 H37Rv_DdnL49P_gfp.
Assay type: cell-based, Mycobacterium tuberculosis
`COc1ccc(-c2ccc3nc(NC(=O)[C@@H]4C5C=CC(C5)[C@@H]4C(=O)O)sc3c2)cc1` (some centres unmarked) [Example 54, 3-[[6-(4-methoxyphenyl)-1,3-benzothiazol-2-yl]carbamoyl]bicyclo[2.2.1]hept-5-ene-2-carboxylic acid] showed an EC50 of 690 nM.
Compound `O=C(Nc1nc2ccc(-c3ccc(C(F)(F)F)cc3)cc2s1)[C@@H]1C2C=CC(C2)[C@@H]1C(=O)O` (some centres unmarked) [Example 60, 3-[[6-[4-(trifluoromethyl)phenyl]-1,3-benzothiazol-2-yl]carbamoyl]bicyclo[2.2.1]hept-5-ene-2-carboxylic acid] has an EC50 of 480 nM.
Work on `CC(C)(C)C#Cc1ccc2nc(NC(=O)[C@@H]3C4C=CC(C4)[C@@H]3C(=O)O)sc2c1` (some centres unmarked) [Example 78, 3-[[6-(3,3-dimethylbut-1-ynyl)-1,3-benzothiazol-2-yl]carbamoyl]bicyclo [2.2.1]hept-5-ene-2-carboxylic acid] yielded an EC50 of 220 nM.

Same assay, conditions: read-out: EC50 H37Rv_DdnL49P_gfp
`COC(=O)c1ccc2nc(NC(=O)[C@@H]3C4C=CC(C4)[C@@H]3C(=O)O)sc2c1` (some centres unmarked) [Example 41, 3-[(6-methoxycarbonyl-1,3-benzothiazol-2-yl)carbamoyl]bicyclo[2.2.1]hept-5-ene-2-carboxylic acid] gave an EC50 of 1000 to 5000 nM.
With `O=C(Nc1nc2ccc(F)cc2s1)[C@@H]1C2C=CC(C2)[C@@H]1C(=O)O` (some centres unmarked) [Example 42, 3-[(6-fluoro-1,3-benzothiazol-2-yl)carbamoyl]bicyclo[2.2.1]hept-5-ene-2-carboxylic acid] the EC50 was 1000 to 5000 nM.
`O=C(Nc1nc2ccc(C(F)(F)F)cc2s1)[C@@H]1C2C=CC(C2)[C@@H]1C(=O)O` (some centres unmarked) [Example 43, 3-[[6-(trifluoromethyl)-1,3-benzothiazol-2-yl]carbamoyl]bicyclo[2.2.1]hept-5-ene-2-carboxylic acid] gave an EC50 of 1000 to 5000 nM.
`O=C(Nc1nc2ccc(OC(F)(F)F)cc2s1)[C@@H]1C2C=CC(C2)[C@@H]1C(=O)O` (some centres unmarked) [Example 44, 3-[[6-(trifluoromethoxy)-1,3-benzothiazol-2-yl]carbamoyl]bicyclo[2.2.1]hept-5-ene-2-carboxylic acid] showed an EC50 of 1000 to 5000 nM.
`O=C1[C@@H]2[C@H](C(=O)N1c1nc3ccc(OC(F)(F)F)cc3s1)[C@@H]1C=C[C@H]2C1` [Example 45, (1R,2S,6R,7S)-4-[6-(trifluoromethoxy)-1,3-benzothiazol-2-yl]-4-azatricyclo[5.2.1.02,6]dec-8-ene-3,5-dione] was tested, and the EC50 was 5000 to 10000 nM.
Compound `O=C(Nc1nc2ccc(I)cc2s1)[C@@H]1C2C=CC(C2)[C@@H]1C(=O)O` (some centres unmarked) [Example 49, 3-[(6-iodo-1,3-benzothiazol-2-yl)carbamoyl]bicyclo[2.2.1]hept-5-ene-2-carboxylic acid] has an EC50 of 1000 to 5000 nM.
Compound `O=C(Nc1nc2ccc(-c3ccccc3)cc2s1)[C@@H]1C2C=CC(C2)[C@@H]1C(=O)O` (some centres unmarked) [Example 51] has an EC50 of 1000 to 5000 nM.
`O=C(Nc1nc2ccc(C3CCCCC3)cc2s1)[C@@H]1C2C=CC(C2)[C@@H]1C(=O)O` (some centres unmarked) [Example 52, 3-[(6-cyclohexyl-1,3-benzothiazol-2-yl)carbamoyl]bicyclo[2.2.1]hept-5-ene-2-carboxylic acid] gave an EC50 of 1000 to 5000 nM.
For `Cc1ccc(-c2ccc3nc(NC(=O)[C@@H]4C5C=CC(C5)[C@@H]4C(=O)O)sc3c2)cc1` (some centres unmarked) [Example 53, 3-[[6-(p-tolyl)-1,3-benzothiazol-2-yl]carbamoyl]bicyclo[2.2.1]hept-5-ene-2-carboxylic acid], the EC50 was less than 1000 nM.
Compound `COc1ccc(-c2ccc3nc(NC(=O)[C@@H]4C5C=CC(C5)[C@@H]4C(=O)O)sc3c2)cc1` (some centres unmarked) [Example 54, 3-[[6-(4-methoxyphenyl)-1,3-benzothiazol-2-yl]carbamoyl]bicyclo[2.2.1]hept-5-ene-2-carboxylic acid] has an EC50 of less than 1000 nM.
`O=C(Nc1nc2ccc(-c3ccc(Cl)cc3)cc2s1)[C@@H]1C2C=CC(C2)[C@@H]1C(=O)O` (some centres unmarked) [Example 55, 3-[[6-(4-chlorophenyl)-1,3-benzothiazol-2-yl]carbamoyl]bicyclo[2.2.1]hept-5-ene-2-carboxylic acid] showed an EC50 of less than 1000 nM.
`O=C(Nc1nc2ccc(-c3ccc(Cl)c(Cl)c3)cc2s1)[C@@H]1C2C=CC(C2)[C@@H]1C(=O)O` (some centres unmarked) [Example 56, 3-[[6-(3,4-dichlorophenyl)-1,3-benzothiazol-2-yl]carbamoyl]bicycle [2.2.1]hept-5-ene-2-carboxylic acid] gave an EC50 of 1000 to 5000 nM.
`O=C(Nc1nc2ccc(-c3ccccc3C(F)(F)F)cc2s1)[C@@H]1C2C=CC(C2)[C@@H]1C(=O)O` (some centres unmarked) [Example 57, 3-[6-[[2-(trifluoromethyl)phenyl]-1,3-benzothiazol-2-yl]carbamoyl]bicyclo[2.2.1]hept-5-ene-2-carboxylic acid] showed an EC50 of 10000 to 20000 nM.
With `O=C1C2C3C=CC(C3)C2C(=O)N1c1nc2ccc(-c3ccccc3C(F)(F)F)cc2s1` [Example 58, (1R,2S,6R,7S)-4-[6-[[2-(trifluoromethyl)phenyl]-1,3-benzothiazol-2-yl]-4-azatricyclo [5.2.1.02,6]dec-8-ene-3,5-dione] the EC50 was 10000 to 20000 nM.
With `O=C(Nc1nc2ccc(-c3cccc(C(F)(F)F)c3)cc2s1)[C@@H]1C2C=CC(C2)[C@@H]1C(=O)O` (some centres unmarked) [Example 59, 3-[[6-[3-(trifluoromethyl)phenyl]-1,3-benzothiazol-2-yl]carbamoyl]bicyclo[2.2.1]hept-5-ene-2-carboxylic acid] the EC50 was 1000 to 5000 nM.
Compound `O=C(Nc1nc2ccc(-c3ccc(C(F)(F)F)cc3)cc2s1)[C@@H]1C2C=CC(C2)[C@@H]1C(=O)O` (some centres unmarked) [Example 60, 3-[[6-[4-(trifluoromethyl)phenyl]-1,3-benzothiazol-2-yl]carbamoyl]bicyclo[2.2.1]hept-5-ene-2-carboxylic acid] has an EC50 of less than 1000 nM.
`O=C1[C@@H]2[C@H](C(=O)N1c1nc3ccc(-c4ccc(C(F)(F)F)cc4)cc3s1)[C@@H]1C=C[C@H]2C1` [Example 61, (1R,2S,6R,7S)-4-[6-[4-(trifluoromethyl)phenyl]-1,3-benzothiazol-2-yl]-4-azatricyclo[5.2.1.02,6]dec-8-ene-3,5-dione] gave an EC50 of less than 1000 nM.
For `O=C(Nc1nc2ccc(-c3ccc(OC(F)(F)F)cc3)cc2s1)[C@@H]1C2C=CC(C2)[C@@H]1C(=O)O` (some centres unmarked) [Example 62, 3-[[6-[4-(trifluoromethoxy)phenyl]-1,3-benzothiazol-2-yl]carbamoyl]bicyclo[2.2.1]hept-5-ene-2-carboxylic acid], the EC50 was less than 1000 nM.
Work on `O=C1[C@@H]2[C@H](C(=O)N1c1nc3ccc(-c4ccc(O)cc4)cc3s1)[C@@H]1C=C[C@H]2C1` [Example 63, (1R,2S,6R,7S)-4-[6-(4-hydroxyphenyl)-1,3-benzothiazol-2-yl]-4-azatricyclo[5.2.1.02,6]dec-8-ene-3,5-dione] yielded an EC50 of 5000 to 10000 nM.
For `O=C(Nc1nc2ccc(-c3ccncc3)cc2s1)[C@@H]1C2C=CC(C2)[C@@H]1C(=O)O` (some centres unmarked) [Example 64, 3-[[6-(4-pyridyl)-1,3-benzothiazol-2-yl]carbamoyl]bicyclo[2.2.1]hept-5-ene-2-carboxylic acid], the EC50 was 5000 to 10000 nM.
Compound `O=C1[C@@H]2C3C=CC(C3)[C@@H]2C(=O)N1c1nc2ccc(-c3ccc(F)nc3)cc2s1` [Example 65, (1R,2S,6R,7S)-4-[6-(6-fluoro-3-pyridyl)-1,3-benzothiazol-2-yl]-4-azatricyclo[5.2.1.02.6]dec-8-ene-3,5-dione] has an EC50 of 1000 to 5000 nM.
Compound `O=C(O)C1C2C=CC(C2)[C@H]1C(=O)Nc1nc2ccc(-c3ccc(C(F)(F)F)nc3)cc2s1` (some centres unmarked) [Example 66, 3-[[6-[6-(trifluoromethyl)-3-pyridyl]-1,3-benzothiazol-2-yl]carbamoyl]bicyclo [2.2.1]hept-5-ene-2-carboxylic acid] has an EC50 of 1000 to 5000 nM.
Work on `O=C1[C@@H]2[C@H](C(=O)N1c1nc3ccc(-c4ccc(C(F)(F)F)nc4)cc3s1)[C@@H]1C=C[C@H]2C1` [Example 67, (1R,2S,6R,7S)-4-[6-[6-(trifluoromethyl)-3-pyridyl]-1,3-benzothiazol-2-yl]-4-azatricyclo [5.2.1.02,6]dec-8-ene-3,5-dione] yielded an EC50 of 1000 to 5000 nM.
`O=C1[C@@H]2[C@H](C(=O)N1c1nc3ccc(-c4ccsc4)cc3s1)[C@@H]1C=C[C@H]2C1` [Example 68, (1R,2S,6R,7S)-4-[6-(3-thienyl)-1,3-benzothiazol-2-yl]-4-azatricyclo[5.2.1.02,6]dec-8-ene-3,5-dione] showed an EC50 of 1000 to 5000 nM.
Work on `O=C(Nc1nc2ccc(-c3ccoc3)cc2s1)[C@@H]1C2C=CC(C2)[C@@H]1C(=O)O` (some centres unmarked) [Example 69, 3-[[6-(3-furyl)-1,3-benzothiazol-2-yl]carbamoyl]bicyclo[2.2.1]hept-5-ene-2-carboxylic acid] yielded an EC50 of less than 1000 nM.
Compound `O=C1[C@@H]2[C@H](C(=O)N1c1nc3ccc(-c4ccoc4)cc3s1)[C@@H]1C=C[C@H]2C1` [Example 70, (1R,2S,6R,7S)-4-[6-(3-furyl)-1,3-benzothiazol-2-yl]-4-azatricyclo[5.2.1.02,6]dec-8-ene-3,5-dione] has an EC50 of 1000 to 5000 nM.
`C#CCOc1ccc(-c2ccc3nc(N4C(=O)[C@@H]5[C@H](C4=O)[C@@H]4C=C[C@H]5C4)sc3c2)cc1` [Example 71, (1R,2S,6R,7S)-4-[6-(4-prop-2-ynoxyphenyl)-1,3-benzothiazol-2-yl]-4-azatricyclo[5.2.1.02,6]dec-8-ene-3,5-dione] showed an EC50 of less than 1000 nM.
`C#Cc1ccc2nc(N3C(=O)[C@@H]4[C@H](C3=O)[C@@H]3C=C[C@H]4C3)sc2c1` [Example 72, (1R,2S,6R,7S)-4-(6-ethynyl-1,3-benzothiazol-2-yl)-4-azatricyclo[5.2.1.02,6]dec-8-ene-3,5-dione] was tested, and the EC50 was 1000 to 5000 nM.
`C#CCOc1ccc2nc(N3C(=O)[C@@H]4[C@H](C3=O)[C@@H]3C=C[C@H]4C3)sc2c1` [Example 73, (1R,2S,6R,7S)-4-(6-prop-2-ynoxy-1,3-benzothiazol-2-yl)-4-azatricyclo[5.2.1.02,6]dec-8-ene-3,5-dione] showed an EC50 of less than 1000 nM.
With `O=C1[C@@H]2C3C=CC(C3)[C@@H]2C(=O)N1c1nc2c(O)cccc2s1` [Example 74] the EC50 was 1000 to 5000 nM.
Work on `C#CCOc1cccc2sc(NC(=O)[C@@H]3C4C=CC(C4)[C@@H]3C(=O)O)nc12` (some centres unmarked) [Example 75, 3-[(4-prop-2-ynoxy-1,3-benzothiazol-2-yl)carbamoyl]bicyclo[2.2.1]hept-5-ene-2-carboxylic acid] yielded an EC50 of 1000 to 5000 nM.
With `O=C(Nc1nc2ccc(C#Cc3ccccc3)cc2s1)[C@@H]1C2C=CC(C2)[C@@H]1C(=O)O` (some centres unmarked) [Example 77, 3-[[6-(2-phenylethynyl)-1,3-benzothiazol-2-yl]carbamoyl]bicyclo[2.2.1]hept-5-ene-2-carboxylic acid] the EC50 was less than 1000 nM.
With `CC(C)(C)C#Cc1ccc2nc(NC(=O)[C@@H]3C4C=CC(C4)[C@@H]3C(=O)O)sc2c1` (some centres unmarked) [Example 78, 3-[[6-(3,3-dimethylbut-1-ynyl)-1,3-benzothiazol-2-yl]carbamoyl]bicyclo [2.2.1]hept-5-ene-2-carboxylic acid] the EC50 was less than 1000 nM.
With `O=C(Nc1nc2ccc(C#CC3CC3)cc2s1)[C@@H]1C2C=CC(C2)[C@@H]1C(=O)O` (some centres unmarked) [Example 79, 3-[[6-(2-cyclopropylethynyl)-1,3-benzothiazol-2-yl]carbamoyl]bicyclo[2.2.1]hept-5-ene-2-carboxylic acid] the EC50 was less than 1000 nM.
`O=C(Nc1nc2ccc(-c3cncnc3)cc2s1)[C@@H]1C2C=CC(C2)[C@@H]1C(=O)O` (some centres unmarked) [Example 80, 3-[(6-pyrimidin-5-yl-1,3-benzothiazol-2-yl)carbamoyl]bicyclo[2.2.1]hept-5-ene-2-carboxylic acid] was tested, and the EC50 was 10000 to 20000 nM.
